Source: patent publication US20230286973A1, “PROTEIN SECRETION INHIBITORS” (KEZAR LIFE SCIENCES, priority 2020, published 2023)

Columns and labels:
[1] = test system: PD1-ss+10aa/Gaussia Luciferase; assay: Dox-Induced PD1-ss-Gluc Assay; format: cell-based; settings: 24 hr Dox induction; 293FRT/TO cells; read-out: 24 hr Dox Inducible PD1ssGluc 293FRT/TO: Mean IC50
How it was run: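 Flp-In 293 T-REx cells stably carrying a doxycycline-inducible Gaussia luciferase fused to the PD1 signal sequence plus 10 aa were plated the day before. Compound dilutions in DMSO/media containing doxycycline were then added and incubated at 37 °C, 5% CO2. Data for undefined stereochemistry refer to stereoisomer mixtures.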

[2] = test system: TNFα-FL/Gaussia Luciferase; assay: Dox Induced TNFα-FL-Gluc Assay; format: cell-based; settings: for IC50: 24 hr Dox induction, 293FRT/TO cells, read-out: 24 hr Dox Inducible TNFaFLGluc 293FRT/TO: Mean IC50; for 24 hr Dox Inducible TNFaFLGluc 293FRT/TO: TNF/PD1: ratio of TNFaFLGluc IC50 to PD1ssGluc IC50
How it was run: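 Flp-In 293 T-REx cells stably carrying doxycycline-inducible full-length TNFα (aa 1-233) fused to Gaussia luciferase. Plated the day before, then treated with compound dilutions in doxycycline-containing medium at 37° C, 5% CO2.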

[3] = test system: HER3-ss+4aa/Gaussia Luciferase; assay: Dox-Induced Her3-ss-Gluc Assay; format: cell-based; settings: 24 hr Dox induction; 293FRT/TO cells; read-out: 24 hr Dox Inducible Her3(ss + 4)Gluc 293FRT/TO: Mean IC50
How it was run: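 Stable Flp-In 293 T-REx cells carried a doxycycline-inducible HER3 signal sequence (+4 aa) fused to Gaussia luciferase. Cells were plated the day before the assay. Compound dilutions in DMSO/media containing doxycycline were then added, and plates were incubated at 37 °C, 5% CO2.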

[4] = test system: IL-2-FL/Gaussia Luciferase; assay: Dox Induced IL2-FL-Gluc Assay; format: cell-based; settings: for IC50: 24 hr Dox induction, 293FRT/TO cells, read-out: 24 hr Dox Inducible IL2FLGluc 293FRT/TO: Mean IC50; for 24 hr Dox Inducible IL2FLGluc 293FRT/TO: IL2/PD1: ratio of IL2FLGluc IC50 to PD1ssGluc IC50
How it was run: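 Stable Flp-In 293 T-REx cells carrying doxycycline-inducible full-length IL-2 (aa 1-153) fused to Gaussia luciferase, plated the day before assay. Compound dilutions added in medium containing doxycycline, incubated at 37 °C, 5% CO2. Undefined stereocentres mean data refer to stereoisomer mixtures.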

[5] = test system: multiple myeloma cell line NCI-H929; assay: H929 Cell Viability Assay; format: cell-based, human; settings: Homo sapiens, NCI-H929, 48 h, NCI-H929 cells, Celltiter-Glo
How it was run: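 NCI-H929 cells in RPMI 1640 with 10% FBS were treated with compound dilutions for 48 h at 37° C, 5% CO2. Viability was read by CellTiter-Glo luminescence. Undefined stereocentres denote stereoisomer mixtures.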

[6] = test system: multiple myeloma cell line U266B1; assay: U266 Cell Viability Assay; format: cell-based, human; settings: Homo sapiens, U-266, 48 h, U266B1 cells, Celltiter-Glo
How it was run: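 U266B1 multiple myeloma cells in RPMI 1640/10% FBS were treated with compound dilutions for 48 h at 37 °C, 5% CO2. Viability was measured by CellTiter-Glo luminescence; compounds drawn without stereochemistry were tested as stereoisomer mixtures.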

[7] = Liver Microsome Stability Assay (rat); settings: rat liver microsomes, with NADPH, 1.0 uM compound
Method: (§1) Stability of a compound was assessed in the presence of liver microsomes from various sources—mouse, rat, monkey and human liver microsomes. 1.0 uM compound, 0.4% DMSO in 0.1 M Potassium Phosphate with 1.0 mg/mL liver microsomes, were incubated at 37° C. with or without 1 mM NADPH. The samples were quenched at 0, and 30 minutes.

[8] = Liver Microsome Stability Assay (mouse); settings: mouse liver microsomes, with NADPH, 1.0 uM compound
Method: as §1

[9] = Liver Microsome Stability Assay (human); settings: human liver microsomes, with NADPH, 1.0 uM compound
Method: as §1

[10] = Liver Microsome Stability Assay (monkey); settings: monkey liver microsomes, with NADPH, 1.0 uM compound
Method: as §1

## CC(=O)NCc1ccc(N2CCC[C@@H]2c2csc(NC(=O)c3cccn3Cc3ccncc3)n2)cc1 [Compound A45, (R)-N-(4-(1-(4-(acetamidomethyl)phenyl)pyrrolidin-2-yl)thiazol-2-yl)-1-(pyridin-4-ylmethyl)-1H-pyrrole-2-carboxamide]
[1]
  IC50: 0.0164 µM
[2]
  IC50: 0.22 µM
  24 hr Dox Inducible TNFaFLGluc 293FRT/TO: TNF/PD1: 13.4
[3]
  IC50: 0.0343 µM
[4]
  IC50: 0.0555 µM
  24 hr Dox Inducible IL2FLGluc 293FRT/TO: IL2/PD1: 3.4
[5]
  EC50: 0.425 µM
[6]
  EC50: > 25 µM
[7]
  Liver Microsome Stability (Multiple Species): Rat - % Remaining after 30 min w/NADPH: 0.29%
[8]
  Liver Microsome Stability (Multiple Species): Mouse - % Remaining after 30 min w/NADPH: 0.76%
[9]
  Liver Microsome Stability (Multiple Species): Human - % Remaining after 30 min w/NADPH: 0.08%
[10]
  Liver Microsome Stability (Multiple Species): Monkey - % Remaining after 30 min w/NADPH: 0.1%

## CC(=O)Nc1ccc(N2CCC[C@@H]2c2csc(NC(=O)c3cccn3Cc3ccncc3)n2)cc1 [Compound A46, (R)-N-(4-(1-(4-acetamidophenyl)pyrrolidin-2-yl)thiazol-2-yl)-1-(pyridin-4-ylmethyl)-1H-pyrrole-2-carboxamide]
[1]
  IC50: 0.003 µM
[2]
  IC50: 0.052 µM
  24 hr Dox Inducible TNFaFLGluc 293FRT/TO: TNF/PD1: 17.3
[3]
  IC50: 0.00651 µM
[4]
  IC50: 0.00411 µM
  24 hr Dox Inducible IL2FLGluc 293FRT/TO: IL2/PD1: 1.4
[5]
  EC50: 0.079 µM
[6]
  EC50: > 25 µM
[7]
  Liver Microsome Stability (Multiple Species): Rat - % Remaining after 30 min w/NADPH: 9.73%
[8]
  Liver Microsome Stability (Multiple Species): Mouse - % Remaining after 30 min w/NADPH: 4.16%
[9]
  Liver Microsome Stability (Multiple Species): Human - % Remaining after 30 min w/NADPH: 3.12%
[10]
  Liver Microsome Stability (Multiple Species): Monkey - % Remaining after 30 min w/NADPH: 2.39%

## CC(=O)N(C)c1ccc(N2CCC[C@@H]2c2csc(NC(=O)c3cccn3Cc3ccncc3)n2)cc1 [Compound A47]
[1]
  IC50: 0.0436 µM
[2]
  IC50: 0.554 µM
  24 hr Dox Inducible TNFaFLGluc 293FRT/TO: TNF/PD1: 12.7
[3]
  IC50: 0.0835 µM
[4]
  IC50: 0.0823 µM
  24 hr Dox Inducible IL2FLGluc 293FRT/TO: IL2/PD1: 1.9
[5]
  EC50: 1.21 µM
[6]
  EC50: > 25 µM
[7]
  Liver Microsome Stability (Multiple Species): Rat - % Remaining after 30 min w/NADPH: 1.17%
[8]
  Liver Microsome Stability (Multiple Species): Mouse - % Remaining after 30 min w/NADPH: 0.02%
[9]
  Liver Microsome Stability (Multiple Species): Human - % Remaining after 30 min w/NADPH: 1.82%
[10]
  Liver Microsome Stability (Multiple Species): Monkey - % Remaining after 30 min w/NADPH: 0.06%

## COCc1ccc(N2CCC[C@@H]2c2csc(NC(=O)c3cccn3Cc3ccncc3)n2)cc1 [Compound A48, (R)-N-(4-(1-(4-(methoxymethyl)phenyl)pyrrolidin-2-yl)thiazol-2-yl)-1-(pyridin-4-ylmethyl)-1H-pyrrole-2-carboxamide]
[1]
  IC50: 0.00613 µM
[2]
  IC50: 0.101 µM
  24 hr Dox Inducible TNFaFLGluc 293FRT/TO: TNF/PD1: 16.4
[3]
  IC50: 0.0174 µM
[4]
  IC50: 0.0135 µM
  24 hr Dox Inducible IL2FLGluc 293FRT/TO: IL2/PD1: 2.2
[5]
  EC50: 0.15 µM
[6]
  EC50: > 25 µM
[7]
  Liver Microsome Stability (Multiple Species): Rat - % Remaining after 30 min w/NADPH: 0.64%
[8]
  Liver Microsome Stability (Multiple Species): Mouse - % Remaining after 30 min w/NADPH: 4.71%
[9]
  Liver Microsome Stability (Multiple Species): Human - % Remaining after 30 min w/NADPH: 2.91%
[10]
  Liver Microsome Stability (Multiple Species): Monkey - % Remaining after 30 min w/NADPH: 1.44%

## CNCc1ccc(N2CCC[C@@H]2c2csc(NC(=O)c3cccn3Cc3ccncc3)n2)cc1 [Compound A49, (R)-N-(4-(1-(4-((methylamino)methyl)phenyl)pyrrolidin-2-yl)thiazol-2-yl)-1-(pyridin-4-ylmethyl)-1H-pyrrole-2-carboxamide]
[1]
  IC50: 0.778 µM
[2]
  IC50: > 25 µM
  24 hr Dox Inducible TNFaFLGluc 293FRT/TO: TNF/PD1: >32.1
[3]
  IC50: 1.64 µM
[4]
  IC50: 2.22 µM
  24 hr Dox Inducible IL2FLGluc 293FRT/TO: IL2/PD1: 2.8
[5]
  EC50: 9.86 µM
[6]
  EC50: 8.12 µM
[7]
  Liver Microsome Stability (Multiple Species): Rat - % Remaining after 30 min w/NADPH: 10.7%
[8]
  Liver Microsome Stability (Multiple Species): Mouse - % Remaining after 30 min w/NADPH: 29.4%
[9]
  Liver Microsome Stability (Multiple Species): Human - % Remaining after 30 min w/NADPH: 1.94%
[10]
  Liver Microsome Stability (Multiple Species): Monkey - % Remaining after 30 min w/NADPH: 0.94%

## O=C(Nc1nc([C@H]2CCCN2c2ccc(C3CCNCC3)cc2)cs1)c1cccn1Cc1ccncc1 [Compound A51, (R)-N-(4-(1-(4-(piperidin-4-yl)phenyl)pyrrolidin-2-yl)thiazol-2-yl)-1-(pyridin-4-ylmethyl)-1H-pyrrole-2-carboxamide]
[1]
  IC50: 0.529 µM
[2]
  IC50: 19.3 µM
  24 hr Dox Inducible TNFaFLGluc 293FRT/TO: TNF/PD1: 36.5
[3]
  IC50: 0.917 µM
[4]
  IC50: 1.04 µM
  24 hr Dox Inducible IL2FLGluc 293FRT/TO: IL2/PD1: 2
[5]
  EC50: 4.95 µM
[6]
  EC50: 6.06 µM
[7]
  Liver Microsome Stability (Multiple Species): Rat - % Remaining after 30 min w/NADPH: 0.4%
[8]
  Liver Microsome Stability (Multiple Species): Mouse - % Remaining after 30 min w/NADPH: 64.3%
[9]
  Liver Microsome Stability (Multiple Species): Human - % Remaining after 30 min w/NADPH: 2.67%
[10]
  Liver Microsome Stability (Multiple Species): Monkey - % Remaining after 30 min w/NADPH: 1.91%

## Cc1cc(Cn2cccc2C(=O)Nc2nc([C@H]3CCCN3c3ccccc3)cs2)ccn1 [Compound A52, (R)-1-((2-methylpyridin-4-yl)methyl)-N-(4-(1-phenylpyrrolidin-2-yl)thiazol-2-yl)-1H-pyrrole-2-carboxamide]
[1]
  IC50: 0.34 µM
[2]
  IC50: 4.05 µM
  24 hr Dox Inducible TNFaFLGluc 293FRT/TO: TNF/PD1: 11.9
[3]
  IC50: 0.45 µM
[4]
  IC50: 0.912 µM
  24 hr Dox Inducible IL2FLGluc 293FRT/TO: IL2/PD1: 2.7
[5]
  EC50: 20.6 µM
[6]
  EC50: > 25 µM
[7]
  Liver Microsome Stability (Multiple Species): Rat - % Remaining after 30 min w/NADPH: 0.63%
[8]
  Liver Microsome Stability (Multiple Species): Mouse - % Remaining after 30 min w/NADPH: 3.47%
[9]
  Liver Microsome Stability (Multiple Species): Human - % Remaining after 30 min w/NADPH: 1.11%
[10]
  Liver Microsome Stability (Multiple Species): Monkey - % Remaining after 30 min w/NADPH: 0.33%

## Cc1cnccc1Cn1cccc1C(=O)Nc1nc([C@H]2CCCN2c2ccccc2)cs1 [Compound A53, (R)-1-((3-methylpyridin-4-yl)methyl)-N-(4-(1-phenylpyrrolidin-2-yl)thiazol-2-yl)-1H-pyrrole-2-carboxamide]
[1]
  IC50: 0.0237 µM
[2]
  IC50: 0.301 µM
  24 hr Dox Inducible TNFaFLGluc 293FRT/TO: TNF/PD1: 12.7
[3]
  IC50: 0.0315 µM
[4]
  IC50: 0.0543 µM
  24 hr Dox Inducible IL2FLGluc 293FRT/TO: IL2/PD1: 2.3
[5]
  EC50: 20.6 µM
[6]
  EC50: > 25 µM
[7]
  Liver Microsome Stability (Multiple Species): Rat - % Remaining after 30 min w/NADPH: 0.63%
[8]
  Liver Microsome Stability (Multiple Species): Mouse - % Remaining after 30 min w/NADPH: 3.47%
[9]
  Liver Microsome Stability (Multiple Species): Human - % Remaining after 30 min w/NADPH: 1.11%
[10]
  Liver Microsome Stability (Multiple Species): Monkey - % Remaining after 30 min w/NADPH: 0.33%
